Results as given in US20100292231A1, “Indazole Compounds for Treating Inflammatory Disorders, Demyelinating Disorders and Cancers” (priority 2007, published 2010).
Read-outs that look alike come from different tables or passages of the source.

Key:
Experiment in all cases: SelectScreen kinase specificity survey
Type in all cases: biochemical
FGR = molecular target: T1, FGR (Homo sapiens, UniProt P09769); details: estimated, abridged dose response curve, read-out: Kinase inhibitory activity EC50
T1 construct: purchased Invitrogen (SelectScreen)
T1 sequence (P09769 whole entry): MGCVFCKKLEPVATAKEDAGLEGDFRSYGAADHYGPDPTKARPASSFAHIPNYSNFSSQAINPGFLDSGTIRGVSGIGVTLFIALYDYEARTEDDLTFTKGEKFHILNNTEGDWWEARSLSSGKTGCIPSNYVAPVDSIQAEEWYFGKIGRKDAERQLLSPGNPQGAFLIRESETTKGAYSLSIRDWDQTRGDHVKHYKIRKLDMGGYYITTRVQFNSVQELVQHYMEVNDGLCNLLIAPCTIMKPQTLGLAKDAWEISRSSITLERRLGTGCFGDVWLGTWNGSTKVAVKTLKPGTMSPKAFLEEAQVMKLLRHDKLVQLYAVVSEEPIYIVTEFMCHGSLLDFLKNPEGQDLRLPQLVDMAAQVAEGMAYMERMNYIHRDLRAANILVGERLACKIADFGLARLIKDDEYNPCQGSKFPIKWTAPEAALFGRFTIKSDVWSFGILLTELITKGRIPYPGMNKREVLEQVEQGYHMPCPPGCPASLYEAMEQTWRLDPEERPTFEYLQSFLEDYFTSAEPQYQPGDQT
Method in brief: (§1)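 Dose-response: 5 graded inhibitor additions per kinase, with ATP at 100 micromolar and detection by an optical reporter on a kinase-unique substrate. The sigmoid saturation fit has four parameters (Hill); EC50 is an estimate.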

AKT3 (PKB gamma) = molecular target: T2, AKT3 (PKB gamma) (Homo sapiens, UniProt Q9Y243); details: estimated, abridged dose response curve, read-out: Kinase inhibitory activity EC50
T2 construct: purchased Invitrogen (SelectScreen platform)
T2 sequence (Q9Y243 whole entry): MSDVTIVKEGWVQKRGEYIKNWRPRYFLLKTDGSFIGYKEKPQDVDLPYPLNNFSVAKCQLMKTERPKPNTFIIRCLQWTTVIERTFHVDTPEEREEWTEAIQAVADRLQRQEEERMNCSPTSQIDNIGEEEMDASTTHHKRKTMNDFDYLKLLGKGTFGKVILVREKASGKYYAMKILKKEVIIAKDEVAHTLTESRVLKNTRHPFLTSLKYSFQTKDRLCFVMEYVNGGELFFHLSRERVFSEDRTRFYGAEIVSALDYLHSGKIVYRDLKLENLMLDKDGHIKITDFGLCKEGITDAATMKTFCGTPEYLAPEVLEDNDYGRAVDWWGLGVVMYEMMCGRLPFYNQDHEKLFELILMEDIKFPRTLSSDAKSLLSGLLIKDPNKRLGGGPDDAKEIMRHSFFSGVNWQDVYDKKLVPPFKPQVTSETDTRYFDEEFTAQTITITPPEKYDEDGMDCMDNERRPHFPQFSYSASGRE
Method in brief: as §1

FGFR3 K650E = molecular target: T3, FGFR3 K650E (Homo sapiens, UniProt P22607, K650E); details: estimated, abridged dose response curve, read-out: Kinase inhibitory activity EC50
T3 construct: purchased Invitrogen (SelectScreen platform)
Method in brief: as §1

NEK1 = molecular target: T4, NEK1 (Homo sapiens, UniProt Q96PY6); details: estimated, abridged dose response curve, read-out: Kinase inhibitory activity EC50
T4 construct: purchased Invitrogen, Inc. (SelectScreen service)
Method in brief: as §1

SGKL (SGK3) = molecular target: T5, SGKL (SGK3) (Homo sapiens, UniProt Q96BR1); details: estimated, abridged dose response curve, read-out: Kinase inhibitory activity EC50
T5 construct: purchased Invitrogen, Inc. (SelectScreen platform)
Method in brief: as §1

FGFR4 = molecular target: T6, FGFR4 (Homo sapiens, UniProt P22455); details: estimated, abridged dose response curve, read-out: Kinase inhibitory activity EC50
T6 construct: purchased Invitrogen (SelectScreen platform)
Method in brief: as §1

AXL = molecular target: T7, AXL (Homo sapiens, UniProt P30530); details: estimated, abridged dose response curve, read-out: Kinase inhibitory activity EC50
T7 construct: purchased Invitrogen (SelectScreen service)
Method in brief: as §1

MST4 = molecular target: T8, MST4 (Homo sapiens, UniProt Q9P289); details: estimated, abridged dose response curve, read-out: Kinase inhibitory activity EC50
T8 construct: purchased Invitrogen (SelectScreen platform)
Method in brief: as §1

CDK5/p35 = molecular target: T9, CDK5/p35 (Homo sapiens, UniProt Q00535); details: estimated, abridged dose response curve, read-out: Kinase inhibitory activity EC50
T9 construct: purchased Invitrogen (SelectScreen platform)
T9 sequence (Q00535 whole entry): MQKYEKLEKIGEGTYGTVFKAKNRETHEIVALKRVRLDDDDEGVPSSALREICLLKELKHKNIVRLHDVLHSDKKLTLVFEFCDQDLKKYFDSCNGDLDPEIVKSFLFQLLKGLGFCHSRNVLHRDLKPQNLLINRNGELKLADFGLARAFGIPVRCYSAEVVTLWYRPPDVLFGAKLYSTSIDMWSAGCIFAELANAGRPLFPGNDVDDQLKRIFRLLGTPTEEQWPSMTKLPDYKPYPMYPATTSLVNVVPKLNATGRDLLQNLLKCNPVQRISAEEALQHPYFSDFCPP
T9 sequence (Q15078 2-307 partner limits assumed): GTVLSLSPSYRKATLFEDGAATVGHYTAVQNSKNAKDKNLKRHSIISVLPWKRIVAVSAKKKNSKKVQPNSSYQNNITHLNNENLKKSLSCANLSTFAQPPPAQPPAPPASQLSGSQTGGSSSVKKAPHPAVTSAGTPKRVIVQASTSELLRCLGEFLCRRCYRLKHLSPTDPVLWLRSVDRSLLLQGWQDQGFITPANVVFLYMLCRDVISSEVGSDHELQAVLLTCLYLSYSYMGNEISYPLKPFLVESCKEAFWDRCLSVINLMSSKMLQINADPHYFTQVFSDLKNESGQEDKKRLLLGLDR
Method in brief: as §1

MAPK1 (ERK2) = molecular target: T10, MAPK1 (ERK2) (Homo sapiens, UniProt P28482); details: estimated, abridged dose response curve, read-out: Kinase inhibitory activity EC50
T10 construct: purchased Invitrogen (SelectScreen platform)
Method in brief: as §1

STK4 (MST1) = molecular target: T11, STK4 (MST1) (Homo sapiens, UniProt Q13043); details: estimated, abridged dose response curve, read-out: Kinase inhibitory activity EC50
T11 construct: purchased Invitrogen (SelectScreen platform)
Method in brief: as §1

ADRBK2 (BARK2, GRK3) = molecular target: T12, ADRBK2 (BARK2, GRK3) (Homo sapiens, UniProt P35626)
T12 construct: purchased Invitrogen (SelectScreen platform)
Method in brief: as §1

CAMK2B (CaMKII beta) = molecular target: T13, CAMK2B (CaMKII beta) (Homo sapiens, UniProt Q13554); details: estimated, abridged dose response curve, read-out: Kinase inhibitory activity EC50
T13 construct: purchased Invitrogen, Inc. (SelectScreen platform)
Method in brief: as §1

GRK4 = molecular target: T14, GRK4 (Homo sapiens, UniProt P32298)
T14 construct: purchased Invitrogen (SelectScreen platform)
Method in brief: as §1

PLK3 = molecular target: T15, PLK3 (Homo sapiens, UniProt Q9H4B4); details: estimated, abridged dose response curve, read-out: Kinase inhibitory activity EC50
T15 construct: purchased Invitrogen, Inc. (SelectScreen service)
Method in brief: as §1

SGK2 = molecular target: T16, SGK2 (Homo sapiens, UniProt Q9HBY8); details: estimated, abridged dose response curve, read-out: Kinase inhibitory activity EC50
T16 construct: purchased Invitrogen, Inc. (SelectScreen platform)
Method in brief: as §1

CDC42 BPB (MRCKB) = molecular target: T17, CDC42 BPB (MRCKB) (Homo sapiens, UniProt Q9Y5S2); details: estimated, abridged dose response curve, read-out: Kinase inhibitory activity EC50
T17 construct: purchased Invitrogen (SelectScreen platform)
T17 sequence (Q9Y5S2 whole entry): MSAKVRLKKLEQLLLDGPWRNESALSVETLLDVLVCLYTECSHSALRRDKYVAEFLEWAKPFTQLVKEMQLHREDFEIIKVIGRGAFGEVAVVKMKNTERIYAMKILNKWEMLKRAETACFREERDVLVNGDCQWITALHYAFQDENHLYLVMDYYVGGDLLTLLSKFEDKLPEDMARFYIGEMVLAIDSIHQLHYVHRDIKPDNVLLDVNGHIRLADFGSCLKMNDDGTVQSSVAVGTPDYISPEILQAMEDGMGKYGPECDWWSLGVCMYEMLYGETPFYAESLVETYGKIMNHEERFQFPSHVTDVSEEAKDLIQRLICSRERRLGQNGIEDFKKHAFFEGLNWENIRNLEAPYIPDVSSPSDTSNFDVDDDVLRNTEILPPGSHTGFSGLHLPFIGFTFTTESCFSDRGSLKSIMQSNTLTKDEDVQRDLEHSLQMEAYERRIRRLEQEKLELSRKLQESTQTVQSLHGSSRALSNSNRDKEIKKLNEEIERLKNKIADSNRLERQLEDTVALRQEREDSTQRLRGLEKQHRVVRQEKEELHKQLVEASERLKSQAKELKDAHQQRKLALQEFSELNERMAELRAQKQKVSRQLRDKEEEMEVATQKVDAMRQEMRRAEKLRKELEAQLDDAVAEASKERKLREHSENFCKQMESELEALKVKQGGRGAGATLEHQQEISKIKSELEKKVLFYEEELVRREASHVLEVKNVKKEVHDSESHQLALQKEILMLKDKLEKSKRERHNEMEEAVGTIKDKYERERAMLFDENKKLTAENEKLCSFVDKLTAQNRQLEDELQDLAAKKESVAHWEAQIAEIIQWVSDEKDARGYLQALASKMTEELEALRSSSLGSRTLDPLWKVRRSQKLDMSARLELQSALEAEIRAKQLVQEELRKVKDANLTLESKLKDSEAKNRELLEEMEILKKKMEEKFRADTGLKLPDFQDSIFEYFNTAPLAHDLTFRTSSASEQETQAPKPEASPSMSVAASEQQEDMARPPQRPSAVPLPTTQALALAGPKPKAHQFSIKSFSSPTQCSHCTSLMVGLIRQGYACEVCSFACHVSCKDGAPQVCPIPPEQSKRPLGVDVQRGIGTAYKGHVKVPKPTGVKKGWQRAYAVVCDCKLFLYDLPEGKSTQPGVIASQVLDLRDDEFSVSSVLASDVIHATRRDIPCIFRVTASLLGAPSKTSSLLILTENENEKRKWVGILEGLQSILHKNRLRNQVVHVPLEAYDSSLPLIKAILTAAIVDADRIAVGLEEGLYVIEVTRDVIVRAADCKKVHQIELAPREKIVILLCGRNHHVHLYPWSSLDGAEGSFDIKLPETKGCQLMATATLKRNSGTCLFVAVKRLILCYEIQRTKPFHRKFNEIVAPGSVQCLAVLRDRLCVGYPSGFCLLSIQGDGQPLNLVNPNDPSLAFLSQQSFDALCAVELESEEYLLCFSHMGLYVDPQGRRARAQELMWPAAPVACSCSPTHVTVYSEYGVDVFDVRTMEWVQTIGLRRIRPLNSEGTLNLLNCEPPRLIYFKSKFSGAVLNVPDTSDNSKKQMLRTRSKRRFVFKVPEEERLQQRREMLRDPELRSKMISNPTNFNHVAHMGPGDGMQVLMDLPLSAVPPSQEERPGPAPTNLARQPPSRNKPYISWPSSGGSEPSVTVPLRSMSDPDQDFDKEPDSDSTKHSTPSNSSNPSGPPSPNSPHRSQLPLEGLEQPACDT
Method in brief: as §1

MUSK = molecular target: T18, MUSK (Homo sapiens, UniProt O15146); details: estimated, abridged dose response curve, read-out: Kinase inhibitory activity EC50
T18 construct: purchased Invitrogen (SelectScreen platform)
Method in brief: as §1

LCK = molecular target: T19, LCK (Homo sapiens, UniProt P06239); details: estimated, abridged dose response curve, read-out: Kinase inhibitory activity EC50
T19 construct: purchased Invitrogen (SelectScreen)
T19 sequence (P06239 whole entry): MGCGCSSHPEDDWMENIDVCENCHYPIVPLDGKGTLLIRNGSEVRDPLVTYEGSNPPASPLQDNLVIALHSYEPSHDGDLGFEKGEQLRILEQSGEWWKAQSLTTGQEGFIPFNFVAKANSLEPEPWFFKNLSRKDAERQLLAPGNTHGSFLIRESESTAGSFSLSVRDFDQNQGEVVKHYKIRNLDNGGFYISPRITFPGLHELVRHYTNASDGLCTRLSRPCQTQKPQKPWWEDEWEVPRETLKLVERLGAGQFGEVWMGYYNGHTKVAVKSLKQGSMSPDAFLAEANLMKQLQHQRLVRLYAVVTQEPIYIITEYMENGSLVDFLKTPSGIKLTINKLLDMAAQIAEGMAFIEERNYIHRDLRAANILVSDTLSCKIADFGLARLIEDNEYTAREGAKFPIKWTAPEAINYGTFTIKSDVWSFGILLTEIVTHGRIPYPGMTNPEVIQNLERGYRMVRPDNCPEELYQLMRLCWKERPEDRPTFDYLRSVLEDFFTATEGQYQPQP
Method in brief: as §1

PAK4 = molecular target: T20, PAK4 (Homo sapiens, UniProt O96013); details: estimated, abridged dose response curve, read-out: Kinase inhibitory activity EC50
T20 construct: purchased Invitrogen (SelectScreen platform)
Method in brief: as §1

PRKCQ (PKC theta) = molecular target: T21, PRKCQ (PKC theta) (Homo sapiens, UniProt Q04759); details: estimated, abridged dose response curve, read-out: Kinase inhibitory activity EC50
T21 construct: purchased Invitrogen, Inc. (SelectScreen platform)
Method in brief: as §1

TYRO3 (RSE) = molecular target: T22, TYRO3 (RSE) (Homo sapiens, UniProt Q06418); details: estimated, abridged dose response curve, read-out: Kinase inhibitory activity EC50
T22 construct: purchased Invitrogen (SelectScreen service)
T22 sequence (Q06418 41-890): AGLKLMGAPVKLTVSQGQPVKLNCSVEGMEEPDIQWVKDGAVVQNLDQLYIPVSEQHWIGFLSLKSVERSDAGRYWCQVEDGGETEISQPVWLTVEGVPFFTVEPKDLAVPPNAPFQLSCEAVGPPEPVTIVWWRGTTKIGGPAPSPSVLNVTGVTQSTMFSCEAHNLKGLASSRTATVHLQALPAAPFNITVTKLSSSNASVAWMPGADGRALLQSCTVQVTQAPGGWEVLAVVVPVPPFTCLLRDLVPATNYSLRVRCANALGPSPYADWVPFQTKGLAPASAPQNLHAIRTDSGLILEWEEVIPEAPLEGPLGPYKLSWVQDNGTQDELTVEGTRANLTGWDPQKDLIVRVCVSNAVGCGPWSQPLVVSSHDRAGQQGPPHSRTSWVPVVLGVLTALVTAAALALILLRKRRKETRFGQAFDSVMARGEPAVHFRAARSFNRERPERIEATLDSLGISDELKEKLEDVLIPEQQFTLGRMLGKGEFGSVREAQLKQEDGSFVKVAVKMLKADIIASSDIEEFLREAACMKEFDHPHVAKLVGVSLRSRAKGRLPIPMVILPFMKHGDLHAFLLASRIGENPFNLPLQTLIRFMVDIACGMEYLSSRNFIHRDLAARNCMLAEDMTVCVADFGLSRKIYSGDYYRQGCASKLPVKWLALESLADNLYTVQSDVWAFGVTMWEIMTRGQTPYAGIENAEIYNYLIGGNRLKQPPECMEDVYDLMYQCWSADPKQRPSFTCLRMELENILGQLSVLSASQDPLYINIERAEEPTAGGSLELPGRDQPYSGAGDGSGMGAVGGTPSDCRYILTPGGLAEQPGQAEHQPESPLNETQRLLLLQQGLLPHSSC
Method in brief: as §1

CSNK1A1 (CK1 alpha 1) = molecular target: T23, CSNK1A1 (CK1 alpha 1) (Homo sapiens, UniProt P48729); details: estimated, abridged dose response curve, read-out: Kinase inhibitory activity EC50
T23 construct: purchased Invitrogen (SelectScreen platform)
T23 sequence (P48729 whole entry): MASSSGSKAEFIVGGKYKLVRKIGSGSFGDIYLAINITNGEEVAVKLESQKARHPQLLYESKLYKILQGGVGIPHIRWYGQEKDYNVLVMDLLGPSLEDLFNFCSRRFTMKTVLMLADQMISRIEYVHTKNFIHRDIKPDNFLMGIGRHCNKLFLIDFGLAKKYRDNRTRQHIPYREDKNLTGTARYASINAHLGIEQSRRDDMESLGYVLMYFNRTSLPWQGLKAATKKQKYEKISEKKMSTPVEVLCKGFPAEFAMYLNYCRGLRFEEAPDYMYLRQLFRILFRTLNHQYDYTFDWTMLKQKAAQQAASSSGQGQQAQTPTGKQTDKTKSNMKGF
Method in brief: as §1

DYRK1A = molecular target: T24, DYRK1A (Homo sapiens, UniProt Q13627); details: estimated, abridged dose response curve, read-out: Kinase inhibitory activity EC50
T24 construct: purchased Invitrogen (SelectScreen platform)
Method in brief: as §1

PRKD2 (PKD2) = molecular target: T25, PRKD2 (PKD2) (Homo sapiens, UniProt Q9BZL6); details: estimated, abridged dose response curve, read-out: Kinase inhibitory activity EC50
T25 construct: purchased Invitrogen, Inc. (SelectScreen platform)
Method in brief: as §1

MAP4K4 (HGK, ZC1) = molecular target: T26, MAP4K4 (HGK, ZC1) (Homo sapiens, UniProt O95819); details: estimated, abridged dose response curve, read-out: Kinase inhibitory activity EC50
T26 construct: purchased Invitrogen (SelectScreen platform)
Method in brief: as §1

Row | SMILES | EC50 (FGR) [µM] | EC50 (AKT3 (PKB gamma)) [µM] | EC50 (FGFR3 K650E) [µM] | EC50 (NEK1) [µM] | EC50 (SGKL (SGK3)) [µM] | EC50 (FGFR4) [µM] | EC50 (AXL) [µM] | EC50 (MST4) [µM] | EC50 (CDK5/p35) [µM] | EC50 (MAPK1 (ERK2)) [µM] | EC50 (STK4 (MST1)) [µM] | EC50 (CAMK2B (CaMKII beta)) [µM] | EC50 (PLK3) [µM] | EC50 (SGK2) [µM] | EC50 (CDC42 BPB (MRCKB)) [µM] | EC50 (MUSK) [µM] | EC50 (LCK) [µM] | EC50 (PAK4) [µM] | EC50 (PRKCQ (PKC theta)) [µM] | EC50 (TYRO3 (RSE)) [µM] | other results
1 | CN(C)CCCNc1ccc2ncn3c4ccc5[nH]ncc5c4c(=O)c1c23 [Compound (IV)] | 0.367 | > 5 | > 5 | > 5 | > 5 | > 5 | 4.44 | > 5 | 2.8 | > 5 | 2.17 | > 5 | > 5 | > 5 | 3.63 | 1.43 | 0.345 | > 5 | > 5 | 3.57 | EC50 (ADRBK2 (BARK2, GRK3); ADRBK2 (BARK2, GRK3), estimated, abridged dose response curve, read-out: Kinase inhibitory activity EC50): > 5 µM; EC50 (GRK4; GRK4, estimated, abridged dose response curve, read-out: Kinase inhibitory activity EC50): > 5 µM; EC50 (CSNK1A1 (CK1 alpha 1)): > 5 µM; EC50 (DYRK1A): 0.468 µM; EC50 (PRKD2 (PKD2)): 0.759 µM; EC50 (MAP4K4 (HGK, ZC1)): > 5 µM
2 | CCN(CC)CCNc1ccc2ncn3c4ccc(O)cc4c(=O)c1c23 [Symadex, 5-(2-(diethylamino)ethylamino)-8-hydroxy-6H-imidazo[4,5,1-de]acridin-6-one, reference compound] | 1.27 | > 5 | > 5 | 3.38 | > 5 | > 5 | 3.77 | 1.58 | > 5 | > 5 | > 5 | > 5 | > 5 | > 5 | > 5 | 3.71 | 0.824 | > 5 | > 5 | 2.44 | EC50 (ADRBK2 (BARK2, GRK3)): > 5 µM; EC50 (GRK4): > 5 µM; EC50 (CSNK1A1 (CK1 alpha 1)): 3.48 µM; EC50 (DYRK1A): 0.708 µM; EC50 (PRKD2 (PKD2)): 0.292 µM; EC50 (MAP4K4 (HGK, ZC1)): 3.13 µM
